These are literature values, as cited in US11413265B2, “Formulations and compositions of Cabazitaxel” (Zhuhai Beihai Biotech Co., Ltd., priority 2018, dated 2022).

One series concerns human serum proteins. As to conditions: in vitro.
A further series has as its target human serum albumin (Homo sapiens, UniProt P02768). As to conditions: in vitro.

Chain of human serum albumin (P02768 25-609): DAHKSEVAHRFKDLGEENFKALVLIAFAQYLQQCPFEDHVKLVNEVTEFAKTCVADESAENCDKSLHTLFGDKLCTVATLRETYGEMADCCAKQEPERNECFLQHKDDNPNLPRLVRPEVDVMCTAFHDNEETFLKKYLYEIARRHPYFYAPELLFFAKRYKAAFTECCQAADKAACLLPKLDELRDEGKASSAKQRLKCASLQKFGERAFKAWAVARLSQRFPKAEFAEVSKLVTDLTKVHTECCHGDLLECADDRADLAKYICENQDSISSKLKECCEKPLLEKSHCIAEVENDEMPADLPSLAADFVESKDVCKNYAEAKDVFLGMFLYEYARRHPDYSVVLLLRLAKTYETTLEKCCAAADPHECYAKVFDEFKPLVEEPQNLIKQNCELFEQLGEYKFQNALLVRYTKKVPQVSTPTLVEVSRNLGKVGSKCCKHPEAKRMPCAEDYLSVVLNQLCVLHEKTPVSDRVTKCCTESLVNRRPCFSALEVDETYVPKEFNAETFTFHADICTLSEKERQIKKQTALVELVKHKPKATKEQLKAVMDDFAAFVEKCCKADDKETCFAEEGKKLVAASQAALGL

As for `CO[C@H]1C(=O)[C@]2(C)[C@@H](OC)C[C@H]3OC[C@@]3(OC(C)=O)[C@H]2[C@H](OC(=O)c2ccccc2)[C@]2(O)C[C@H](OC(=O)[C@H](O)[C@@H](NC(=O)OC(C)(C)C)c3ccccc3)C(C)=C1C2(C)C` [Cabazitaxel, cabazitaxel], the solubility in alcohol result (alcohol) was “soluble”. Besides, the solubility in water result (water) is given as “practically insoluble”. Further, the “concentration up to which binding to human serum proteins was not saturable” value in the series with human serum proteins is reported as > 50,000 ng/mL. Further, on human serum albumin, the “bound to human serum albumin” value is recorded as 82%.
